Assay results published in patent US11207325B2, “Triazolopyrimidine compounds and uses thereof” (Novartis AG, priority 2014, dated 2021).

Tested on: H3K27 methylation in G401 cell
Test: ELISA (H3K27 methylation) assay
Assay type: cell-based
Conditions: Homo sapiens, G-401; ELISA Qualified assay (H3K27 methylation); read-out: (c) IC50 (μM), ELISA Qualified
Description: ELISA (H3K27 Methylation) Assay

IC50 [µM]	Compound
0.0036	Cc1ccc(-c2cnc(NCc3c(F)ccc4c3CCO4)n3cnnc23)c(C(F)F)n1 [Example 201, 8-(2-(difluoromethyl)-6-methylpyridin-3-yl)-N-((5-fluoro-2,3-dihydrobenzofuran-4-yl)methyl)-[1,2,4]triazolo[4,3-c]pyrimidin-5-amine]
0.0206	Fc1ccc2c(c1CNc1ncc(-c3ccnnc3)c3nncn13)CCO2 [Example 202, N-((5-fluoro-2,3-dihydrobenzofuran-4-yl)methyl)-8-(pyridazin-4-yl)-[1,2,4]triazolo[4,3-c]pyrimidin-5-amine]
0.0103	Cc1c(-c2cnc(NCc3c(F)ccc4c3CCO4)n3cnnc23)ccc[n+]1[O-] [Example 204, 3-(5-(((5-fluoro-2,3-dihydrobenzofuran-4-yl)methyl)amino)-[1,2,4]triazolo[4,3-c]pyrimidin-8-yl)-2-methylpyridine 1-oxide]
0.0576	Cc1cc(C)c(-c2cnc(NCc3c(F)ccc4c3CCO4)n3cnnc23)cn1 [Example 222, 8-(4,6-dimethylpyridin-3-yl)-N-((5-fluoro-2,3-dihydrobenzofuran-4-yl)methyl)-[1,2,4]triazolo[4,3-c]pyrimidin-5-amine]
0.0022	CCc1cc(C)c(-c2cnc(NCc3c(F)ccc4c3CCO4)n3cnnc23)cn1 [Example 224, 8-(6-ethyl-4-methylpyridin-3-yl)-N-((5-fluoro-2,3-dihydrobenzofuran-4-yl)methyl)-[1,2,4]triazolo[4,3-c]pyrimidin-5-amine]
0.0091	Cn1ncc(-c2cnc(NCc3c(F)ccc4c3CCO4)n3cnnc23)c1CO [Example 227, (4-(5-(((5-fluoro-2,3-dihydrobenzofuran-4-yl)methyl)amino)-[1,2,4]triazolo[4,3-c]pyrimidin-8-yl)-1-methyl-1H-pyrazol-5-yl)methanol]
0.0292	Cc1cnc(Cl)cc1-c1cnc(NCc2c(F)ccc3c2CCO3)n2cnnc12 [Example 228, 8-(2-chloro-5-methylpyridin-4-yl)-N-((5-fluoro-2,3-dihydrobenzofuran-4-yl)methyl)-[1,2,4]triazolo[4,3-c]pyrimidin-5-amine]
0.0027	CCc1ccc(-c2cnc(NCc3c(F)ccc4c3CCO4)n3cnnc23)c(C)n1 [Example 229, 8-(6-ethyl-2-methylpyridin-3-yl)-N-((5-fluoro-2,3-dihydrobenzofuran-4-yl)methyl)-[1,2,4]triazolo[4,3-c]pyrimidin-5-amine]
0.0252	COc1nccc(-c2cnc(NCc3c(F)ccc4c3CCO4)n3cnnc23)c1C [Example 230, N-((5-fluoro-2,3-dihydrobenzofuran-4-yl)methyl)-8-(2-methoxy-3-methylpyridin-4-yl)-[1,2,4]triazolo[4,3-c]pyrimidin-5-amine]
0.0358	Fc1ccc2c(c1CNc1ncc(-c3ccccn3)c3nncn13)CCO2 [Example 231, N-((5-fluoro-2,3-dihydrobenzofuran-4-yl)methyl)-8-(pyridin-2-yl)-[1,2,4]triazolo[4,3-c]pyrimidin-5-amine]
0.0133	Cc1cncc(-c2cnc(NCc3c(F)ccc4c3CCO4)n3cnnc23)c1 [Example 232, N-((5-fluoro-2,3-dihydrobenzofuran-4-yl)methyl)-8-(5-methylpyridin-3-yl)-[1,2,4]triazolo[4,3-c]pyrimidin-5-amine]
0.241	Cc1c(-c2cnc(NCc3c(F)ccc4c3C(O)CO4)n3cnnc23)ccc[n+]1[O-] (stereo not shown) [Example 244, 3-(5-(((5-fluoro-3-hydroxy-2,3-dihydrobenzofuran-4-yl)methyl)amino)-[1,2,4]triazolo[4,3-c]pyrimidin-8-yl)-2-methylpyridine 1-oxide]

Second part, the compound before the results:

Compound	IC50 [µM]
Cc1nc(C(=O)N(C)C)ccc1-c1cnc(NCc2c(F)ccc3c2CCO3)n2cnnc12 [Example 199, 5-(5-(((5-fluoro-2,3-dihydrobenzofuran-4-yl)methyl)amino)-[1,2,4]triazolo[4,3-c]pyrimidin-8-yl)-N,N,6-trimethylpicolinamide]	0.005
Cn1cc(-c2cnc(NCc3c(F)ccc4c3CCO4)n3cnnc23)c(C(F)F)n1 [Example 200, 8-(3-(difluoromethyl)-1-methyl-1H-pyrazol-4-yl)-N-((5-fluoro-2,3-dihydrobenzofuran-4-yl)methyl)-[1,2,4]triazolo[4,3-c]pyrimidin-5-amine]	0.003
Fc1ccc2c(c1CNc1ncc(-c3cnccn3)c3nncn13)CCO2 [Example 205, N-((5-fluoro-2,3-dihydrobenzofuran-4-yl)methyl)-8-(pyrazin-2-yl)-[1,2,4]triazolo[4,3-c]pyrimidin-5-amine]	0.0167
Fc1ccc2c(c1CNc1ncc(-c3cncnc3)c3nncn13)CCO2 [Example 206, N-((5-fluoro-2,3-dihydrobenzofuran-4-yl)methyl)-8-(pyrimidin-5-yl)-[1,2,4]triazolo[4,3-c]pyrimidin-5-amine]	0.0159
CN(C)Cc1ccc(-c2cnc(NCc3cccc4occc34)n3cnnc23)cc1 [Example 208, N-(benzofuran-4-ylmethyl)-8-(4-((dimethylamino)methyl)phenyl)-[1,2,4]triazolo[4,3-c]pyrimidin-5-amine]	0.019
CN1CCN(c2ccc(-c3cnc(NCc4cccc5occc45)n4cnnc34)cc2)CC1 [Example 209, N-(benzofuran-4-ylmethyl)-8-(4-(4-methylpiperazin-1-yl)phenyl)-[1,2,4]triazolo[4,3-c]pyrimidin-5-amine]	0.118
CN(C)Cc1ccc(-c2cnc(NCc3c(F)ccc4occc34)n3cnnc23)cc1 [Example 219, 8-(4-((dimethylamino)methyl)phenyl)-N-((5-fluorobenzofuran-4-yl)methyl)-[1,2,4]triazolo[4,3-c]pyrimidin-5-amine]	0.0079
CN1CCC(S(=O)(=O)c2ccc(-c3cnc(NCc4cccc5occc45)n4cnnc34)cc2)CC1 [Example 220, N-(benzofuran-4-ylmethyl)-8-(4-((1-methylpiperidin-4-yl)sulfonyl)phenyl)-[1,2,4]triazolo[4,3-c]pyrimidin-5-amine]	0.467
Cc1nc(CN(C)C)ccc1-c1cnc(NCc2c(F)ccc3c2CCO3)n2cnnc12 [Example 223]	0.0014
Cc1nc(OC2CC2)ncc1-c1cnc(NCc2c(F)ccc3c2CCO3)n2cnnc12 [Example 225, 8-(2-cyclopropoxy-4-methylpyrimidin-5-yl)-N-((5-fluoro-2,3-dihydrobenzofuran-4-yl)methyl)-[1,2,4]triazolo[4,3-c]pyrimidin-5-amine]	0.0045
CCOc1ncc(-c2cnc(NCc3c(F)ccc4c3CCO4)n3cnnc23)c(C)n1 [Example 226, 8-(2-ethoxy-4-methylpyrimidin-5-yl)-N-((5-fluoro-2,3-dihydrobenzofuran-4-yl)methyl)-[1,2,4]triazolo[4,3-c]pyrimidin-5-amine]	0.0061
Cc1cn(-c2cnc(NCc3c(F)ccc4c3CCO4)n3cnnc23)cn1 [Example 233, N-((5-fluoro-2,3-dihydrobenzofuran-4-yl)methyl)-8-(4-methyl-1H-imidazol-1-yl)-[1,2,4]triazolo[4,3-c]pyrimidin-5-amine]	0.002
OCc1ccc(-c2cnc(NCc3c(F)ccc4c3CCO4)n3cnnc23)cn1 [Example 234, (5-(5-(((5-fluoro-2,3-dihydrobenzofuran-4-yl)methyl)amino)-[1,2,4]triazolo[4,3-c]pyrimidin-8-yl)pyridin-2-yl)methanol]	0.0045
Fc1ccc2c(c1CNc1ncc(F)c3nncn13)CCO2 [Example 235, 8-fluoro-N-((5-fluoro-2,3-dihydrobenzofuran-4-yl)methyl)-[1,2,4]triazolo[4,3-c]pyrimidin-5-amine]	0.192
Cc1cn(-c2cnc(NCc3c(F)ccc4c3CCO4)n3cnnc23)c(C)n1 [Example 236, 8-(2,4-dimethyl-1H-imidazol-1-yl)-N-((5-fluoro-2,3-dihydrobenzofuran-4-yl)methyl)-[1,2,4]triazolo[4,3-c]pyrimidin-5-amine]	0.0076
Fc1ccc2c(c1CNc1ncc(-n3cccn3)c3nncn13)CCO2 [Example 237, N-((5-fluoro-2,3-dihydrobenzofuran-4-yl)methyl)-8-(1H-pyrazol-1-yl)-[1,2,4]triazolo[4,3-c]pyrimidin-5-amine]	0.0101
Cc1ncn(-c2cnc(NCc3c(F)ccc4c3CCO4)n3cnnc23)n1 [Example 238, N-((5-fluoro-2,3-dihydrobenzofuran-4-yl)methyl)-8-(3-methyl-1H-1,2,4-triazol-1-yl)-[1,2,4]triazolo[4,3-c]pyrimidin-5-amine]	0.0179
Cc1cnn(-c2cnc(NCc3c(F)ccc4c3CCO4)n3cnnc23)c1 [Example 239, N-((5-fluoro-2,3-dihydrobenzofuran-4-yl)methyl)-8-(4-methyl-1H-pyrazol-1-yl)-[1,2,4]triazolo[4,3-c]pyrimidin-5-amine]	0.0382
Fc1ccc2c(c1CNc1ncc(-n3ccnc3)c3nncn13)CCO2 [Example 240, N-((5-fluoro-2,3-dihydrobenzofuran-4-yl)methyl)-8-(1H-imidazol-1-yl)-[1,2,4]triazolo[4,3-c]pyrimidin-5-amine]	0.0014
Fc1ccc2c(c1CNc1ncc(-n3cncn3)c3nncn13)CCO2 [Example 241, N-((5-fluoro-2,3-dihydrobenzofuran-4-yl)methyl)-8-(1H-1,2,4-triazol-1-yl)-[1,2,4]triazolo[4,3-c]pyrimidin-5-amine]	0.0284
Cc1ncccc1-c1cnc(NCc2c(F)ccc3c2C(O)CO3)n2cnnc12 (stereo not shown) [Example 242, 5-fluoro-4-(((8-(2-methylpyridin-3-yl)-[1,2,4]triazolo[4,3-c]pyrimidin-5-yl)amino)methyl)-2,3-dihydrobenzofuran-3-ol]	0.0634
OCc1ncccc1-c1cnc(NCc2c(F)ccc3c2C(O)CO3)n2cnnc12 (stereo not shown) [Example 243, 5-fluoro-4-(((8-(2-(hydroxymethyl)pyridin-3-yl)-[1,2,4]triazolo[4,3-c]pyrimidin-5-yl)amino)methyl)-2,3-dihydrobenzofuran-3-ol]	0.0409
